Assay results as given in US8486985B2, “Selective subtype alpha 2 adrenergic agents and methods for use thereof” (Allergan, Inc., priority 2008, dated 2013).
Read-outs that look alike come from different tables or passages of the source.

Legend:
[1] = target: T1, alpha 2C receptor (Homo sapiens, UniProt P18825); experiment: RSAT (Receptor Selection and Amplification Technology) assay, alpha 2C; assay type: cell-based; conditions: for RSAT (rel eff) Alpha 2C: intrinsic activity: ratio of maximal effect to that of standard full agonist brimonidine
T1 construct: expressed in transfected cells; host or cells: NIH-3T3 cells
T1 sequence (P18825 1-462): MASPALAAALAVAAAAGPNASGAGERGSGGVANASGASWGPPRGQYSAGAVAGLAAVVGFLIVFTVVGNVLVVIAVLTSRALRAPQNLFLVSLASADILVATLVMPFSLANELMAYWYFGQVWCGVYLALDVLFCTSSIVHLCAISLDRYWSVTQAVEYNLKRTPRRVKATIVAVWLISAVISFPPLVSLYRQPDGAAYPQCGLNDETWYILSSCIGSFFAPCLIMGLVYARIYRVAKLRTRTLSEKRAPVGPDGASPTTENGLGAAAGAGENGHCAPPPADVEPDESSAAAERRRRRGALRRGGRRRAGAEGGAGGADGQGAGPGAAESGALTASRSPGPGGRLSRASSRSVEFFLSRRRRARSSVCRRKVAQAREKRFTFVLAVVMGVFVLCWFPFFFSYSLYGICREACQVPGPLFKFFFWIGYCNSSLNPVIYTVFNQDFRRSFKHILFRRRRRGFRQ
Experimental: (§1) 76, pp. 308-311 (incorporated herein by reference) and is also described below.
(§2) The RSAT assay measures a receptor-mediated loss of contact inhibition that results in selective proliferation of receptor-containing cells in a mixed population of confluent cells. The increase in cell number is assessed with an appropriate transfected marker gene such as β-galactosidase, the activity of which can be easily measured in a 96-well format. Receptors that activate the G protein, Gq, elicit this response. Alpha 2 receptors, which normally couple to Gi, activate the RSAT response when coexpressed with a hybrid Gq protein that has a Gi receptor recognition domain, called Gq/i5.
(§3) NIH-3T3 cells are plated at a density of 2×10^6 cells in 15 cm dishes and maintained in Dulbecco's modified Eagle's medium supplemented with 10% calf serum. One day later, cells are cotransfected by calcium phosphate precipitation with mammalian expression plasmids encoding p-SV-β-galactosidase (5-10 μg), receptor (1-2 μg) and G protein (1-2 μg). 40 μg salmon sperm DNA may also be included in the transfection mixture. Fresh media is added on the following day and 1-2 days later, cells are harvested and frozen in 50 assay aliquots. Cells are thawed and 100 μl added to 100 μL aliquots of various concentrations of drugs in triplicate in 96-well dishes. Incubations continue 72-96 hr at 37° C. After washing with phosphate-buffered saline, β-galactosidase enzyme activity is determined by adding 200 μL of the chromogenic substrate (consisting of 3.5 mM o-nitrophenyl-β-D-galactopyranoside and 0.5% nonidet P-40 in phosphate buffered saline), incubating overnight at 30° C. and measuring optical density at 420 nm. The absorbance is a measure of enzyme activity, which depends on cell number and reflects a receptor-mediated cell proliferation. The efficacy or intrinsic activity is calculated as a ratio of the maximal effect of the drug to the maximal effect of a standard full agonist for each receptor subtype. Brimonidine, the chemical structure of which is shown below, is used as the standard agonist for the alpha 2B and alpha 2C receptors.

[2] = target: T2, alpha 2B receptor (Homo sapiens, UniProt P18089); experiment: RSAT (Receptor Selection and Amplification Technology) assay, alpha 2B; assay type: cell-based; conditions: for RSAT (rel eff) Alpha 2B: intrinsic activity: ratio of maximal effect to that of standard full agonist brimonidine
T2 construct: expressed in transfected cells; host or cells: NIH-3T3 cells
T2 sequence (P18089 1-450): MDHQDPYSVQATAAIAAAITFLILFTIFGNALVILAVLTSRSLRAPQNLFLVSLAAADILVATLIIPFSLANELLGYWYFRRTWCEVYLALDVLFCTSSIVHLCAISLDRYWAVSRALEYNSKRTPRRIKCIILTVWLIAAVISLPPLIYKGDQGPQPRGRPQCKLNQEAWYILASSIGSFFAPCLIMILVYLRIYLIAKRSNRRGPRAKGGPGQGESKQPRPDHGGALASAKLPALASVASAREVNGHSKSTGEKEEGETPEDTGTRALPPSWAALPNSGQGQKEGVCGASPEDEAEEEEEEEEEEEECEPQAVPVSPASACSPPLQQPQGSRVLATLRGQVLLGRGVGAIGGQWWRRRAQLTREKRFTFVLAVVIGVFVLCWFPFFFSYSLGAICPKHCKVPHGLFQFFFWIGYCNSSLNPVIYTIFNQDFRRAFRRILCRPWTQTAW
Experimental: as §1, §2, §3

Row | EC50 ([1]; NIH-3T3 cells cotransfected with receptor, Gq/i5 and beta-galactosidase, nd = not determinable (>10,000), read-out: RSAT EC50 (nM) Alpha 2C) [nM] | EC50 ([2]; NIH-3T3 cells cotransfected with receptor, Gq/i5 and beta-galactosidase, read-out: RSAT EC50 (nM) Alpha 2B) [nM] | SMILES | EC50 [1] [nM] | RSAT (rel eff) Alpha 2C [1] | EC50 [2] [nM] | RSAT (rel eff) Alpha 2B [2]
1 |  |  | C[C@@H](NC1=NCCN1)c1cccc(Cl)c1Cl [Compound 1, N-[1-(2,3-dichloro-phenyl)-ethyl]-4,5-dihydro-1H-imidazol-2-amine] | 41 | 0.35 | 31 | 0.68
2 |  |  | C[C@H](NC1=NCCN1)c1cccc(Cl)c1Cl [Compound 2, (+)-(S)—N-[1-(2,3-dichloro-phenyl)-ethyl]-4,5-dihydro-1H-imidazol-2-amine] | 63 | 0.33 | 19 | 0.63
3 |  |  | CCC(NC1=NCCN1)c1cccc(Cl)c1Cl (stereo not drawn) [Compound 3, N-[1-(2,3-dichloro-phenyl)-propyl]-4,5-dihydro-1H-imidazol-2-amine] | 46 | 0.30 | 38 | 0.82
4 | > 10000 | 11 | Clc1cccc(C(CCc2ccccc2)NC2=NCCN2)c1Cl (stereo not drawn) [Compound 4, N-[1-(2,3-dichloro-phenyl)-3-phenyl-propyl]-4,5-dihydro-1H-imidazol-2-amine] |  |  |  | 0.77
